Assay results from patent publication US20050197350A1, “Novel quinoline, tetrahydroquinazoline, and pyrimidine derivatives and methods of treatment related to the use thereof” (TAISHO PHARMACEUTICAL CO., LTD., priority 2003, published 2005).

Each compound was assayed on MCH receptors (assay: MCH receptor activity class (method not given)). Details: MCH receptor activity class 1-3 (percent of control at 10^-7 M or IC50).

Row | Structure (SMILES) | class
1 | CN(C)c1ccnc(N[C@H]2CC[C@@H](CNC(=O)Nc3ccc(F)c(F)c3)CC2)n1 [compound 2448] | 1 (Class 1: The value of percent of control at 10^−7 M was less than 40% or the value of IC50 was less than 50 nM.)
2 | Cc1cccc(NC(=S)N[C@H]2CC[C@@H](Nc3cc(N(C)C)c4ccccc4n3)CC2)c1C [compound 2299] | 3 (Class 3 The value of percent of control at 10^−7 M was more than 60% or the value of IC50 was more than 200 nM.)
3 | Cc1cc(C)c(NC(=O)NC[C@H]2CC[C@@H](Nc3nccc(N(C)C)n3)CC2)c(C)c1 [compound 2413, N-[(cis-4-{[4-(dimethylamino)pyrimidin-2-yl]amino}cyclohexyl)methyl]-N′-mesitylurea] | 1 (Class 1: The value of percent of control at 10^−7 M was less than 40% or the value of IC50 was less than 50 nM.)
4 | COc1cccc(CNC(=S)N[C@H]2CC[C@@H](Nc3cc(N(C)C)c4ccccc4n3)CC2)c1OC [compound 2288] | 3 (Class 3 The value of percent of control at 10^−7 M was more than 60% or the value of IC50 was more than 200 nM.)
5 | Cc1c(Cl)cccc1NC(=O)NC[C@H]1CC[C@@H](Nc2nccc(N(C)C)n2)CC1 [compound 2431, N-(3-chloro-2-methylphenyl)-N′-[(cis-4-{[4-(dimethylamino)pyrimidin-2-yl]amino}cyclohexyl)methyl]urea] | 1 (Class 1: The value of percent of control at 10^−7 M was less than 40% or the value of IC50 was less than 50 nM.)
6 | Cc1cccc(C(C)C)c1NC(=O)NC[C@H]1CC[C@@H](Nc2nc3c(c(N(C)C)n2)CCCC3)CC1 [compound 2471] | 2 (Class 2: The value of percent of control at 10^−7 M was from 40% to 60% or the value of IC′50 was from 50 nM to 200 nM.)

Same assay, conditions: MCH receptor; class by percent of control at 10^-7 M or IC50

Row | Structure (SMILES) | class
7 | CN(C)c1cc(N[C@H]2CC[C@@H](CNC(=O)c3cc(F)cc(F)c3)CC2)nc2ccccc12 [compound 161, N-[(cis-4-{[4-(dimethylamino)quinolin-2-yl]amino}cyclohexyl)methyl]-3,5-difluorobenzamide] | 3 (Class 3 The value of percent of control at 10^−7 M was more than 60% or the value of IC50 was more than 200 nM.)
8 | CN(C)c1cc(N[C@H]2CC[C@@H](CNC(=O)C3C[C@H]3c3ccccc3)CC2)nc2ccccc12 (stereo partly shown) [compound 173] | 3 (Class 3 The value of percent of control at 10^−7 M was more than 60% or the value of IC50 was more than 200 nM.)
9 | CC(C)S(=O)(=O)c1csc(C(=O)N[C@H]2CC[C@@H](Nc3cc(N(C)C)c4ccccc4n3)CC2)c1Cl [compound 101] | 3 (Class 3 The value of percent of control at 10^−7 M was more than 60% or the value of IC50 was more than 200 nM.)
10 | CN(C)c1cc(N[C@H]2CC[C@@H](NC(=O)c3cccc(OC(F)(F)F)c3)CC2)nc2ccccc12 [compound 54, N-(cis-4-{[4-(dimethylamino)quinolin-2-yl]amino}cyclohexyl)-3-(trifluoromethoxy)benzamide] | 2 (Class 2: The value of percent of control at 10^−7 M was from 40% to 60% or the value of IC′50 was from 50 nM to 200 nM.)
11 | CN(C)c1nc(N[C@H]2CC[C@@H](NC(=S)NCCCCc3ccccc3)CC2)nc2c1CCCC2 [compound 2064] | 3 (Class 3 The value of percent of control at 10^−7 M was more than 60% or the value of IC50 was more than 200 nM.)

Same assay, conditions: activity class 1-3: percent of control at 10^-7 M or IC50

Row | Structure (SMILES) | class
12 | CN(C)c1nc(N[C@H]2CC[C@@H](NC(=O)Nc3ccc(Oc4ccccc4)cc3)CC2)nc2c1CCCC2 [compound 1702] | 3 (Class 3 The value of percent of control at 10^−7 M was more than 60% or the value of IC50 was more than 200 nM.)
13 | CN(C)c1nc(N[C@H]2CC[C@@H](NC(=O)Nc3ccc(Cl)cc3C(F)(F)F)CC2)nc2c1CCCC2 [compound 1687] | 3 (Class 3 The value of percent of control at 10^−7 M was more than 60% or the value of IC50 was more than 200 nM.)
14 | CN(C)c1ccnc(N[C@H]2CC[C@@H](NC(=O)OCC(Cl)(Cl)Cl)CC2)n1 [compound 1638] | 3 (Class 3 The value of percent of control at 10^−7 M was more than 60% or the value of IC50 was more than 200 nM.)

Same assay, conditions: activity class per percent of control at 10^-7 M or IC50

Row | Structure (SMILES) | class
15 | COc1cc(Br)cc(CN[C@H]2CC[C@@H](Nc3cc(N(C)C)c4ccccc4n3)CC2)c1O [compound 1092] | 3 (Class 3 The value of percent of control at 10^−7 M was more than 60% or the value of IC50 was more than 200 nM.)

Same assay, conditions: class 1-3 by percent of control at 10^-7 M or IC50

Row | Structure (SMILES) | class
16 | CN(C)c1nc(N[C@H]2CC[C@@H](CNC(=O)c3ccc4nonc4c3)CC2)nc2c1CCCC2 [compound 585] | 3 (Class 3 The value of percent of control at 10^−7 M was more than 60% or the value of IC50 was more than 200 nM.)

Same assay, conditions: class by percent of control at 10^-7 M or IC50

Row | Structure (SMILES) | class
17 | COc1ccc(NC(=O)N[C@H]2CC[C@@H](Nc3nc4c(c(N(C)C)n3)CCCC4)CC2)c(OC)c1 [compound 1711, N-(2,4-dimethoxyphenyl)-N′-(cis-4-{[4-(dimethylamino)-5,6,7,8-tetrahydroquinazolin-2-yl]amino}cyclohexyl)urea] | 2 (Class 2: The value of percent of control at 10^−7 M was from 40% to 60% or the value of IC′50 was from 50 nM to 200 nM.)
18 | CN(C)c1ccnc(N[C@H]2CC[C@@H](NC(=O)c3ccc([N+](=O)[O-])cc3F)CC2)n1 [compound 912] | 3 (Class 3 The value of percent of control at 10^−7 M was more than 60% or the value of IC50 was more than 200 nM.)
19 | COc1cc(CNC[C@H]2CC[C@@H](Nc3nc4c(c(N(C)C)n3)CCCC4)CC2)cc2c1OCO2 [compound 1430] | 2 (Class 2: The value of percent of control at 10^−7 M was from 40% to 60% or the value of IC′50 was from 50 nM to 200 nM.)
20 | COc1cc(CNC[C@H]2CC[C@@H](Nc3nccc(N(C)C)n3)CC2)cc(I)c1O [compound 1260] | 1 (Class 1: The value of percent of control at 10^−7 M was less than 40% or the value of IC50 was less than 50 nM.)
21 | CN(C)c1nc(N[C@H]2CC[C@@H](CNC(=O)OCc3ccccc3)CC2)nc2c1CCCC2 [compound 617] | 3 (Class 3 The value of percent of control at 10^−7 M was more than 60% or the value of IC50 was more than 200 nM.)
22 | COc1ccc(NC(=O)N[C@H]2CC[C@@H](Nc3nc4c(c(N(C)C)n3)CCCC4)CC2)cc1OC1CCCC1 [compound 1733] | 3 (Class 3 The value of percent of control at 10^−7 M was more than 60% or the value of IC50 was more than 200 nM.)
23 | COC(=O)c1cccc(NC(=S)N[C@H]2CC[C@@H](Nc3nc4c(c(N(C)C)n3)CCCC4)CC2)c1 [compound 1762] | 3 (Class 3 The value of percent of control at 10^−7 M was more than 60% or the value of IC50 was more than 200 nM.)
24 | CN(C)c1cc(N[C@H]2CC[C@@H](CNC(=O)c3c(F)cccc3F)CC2)nc2ccccc12 [compound 229] | 3 (Class 3 The value of percent of control at 10^−7 M was more than 60% or the value of IC50 was more than 200 nM.)
25 | CC(=O)c1cccc(C(=O)N[C@H]2CC[C@@H](Nc3nc4c(c(N(C)C)n3)CCCC4)CC2)c1 [compound 968] | 1 (Class 1: The value of percent of control at 10^−7 M was less than 40% or the value of IC50 was less than 50 nM.)
26 | Cc1cc(NC(=O)N[C@H]2CC[C@@H](Nc3cc(N(C)C)c4ccccc4n3)CC2)c(C(F)(F)F)o1 [compound 2122] | 3 (Class 3 The value of percent of control at 10^−7 M was more than 60% or the value of IC50 was more than 200 nM.)
27 | CN(C)c1ccnc(N[C@H]2CC[C@@H](NC(=O)c3cc4ccccc4s3)CC2)n1 [compound 312] | 3 (Class 3 The value of percent of control at 10^−7 M was more than 60% or the value of IC50 was more than 200 nM.)
28 | CC(Oc1ccccc1)C(=O)NC[C@H]1CC[C@@H](Nc2nc3c(c(N(C)C)n2)CCCC3)CC1 (relative stereo) [compound 611] | 3 (Class 3 The value of percent of control at 10^−7 M was more than 60% or the value of IC50 was more than 200 nM.)
29 | COc1ccc(CNC[C@H]2CC[C@@H](Nc3nc4c(c(N(C)C)n3)CCCC4)CC2)cc1 [compound 1383] | 3 (Class 3 The value of percent of control at 10^−7 M was more than 60% or the value of IC50 was more than 200 nM.)
30 | CN(C)c1ccnc(N[C@H]2CC[C@@H](NC(=O)c3ccccc3Oc3ccccc3)CC2)n1 [compound 893, N-(cis-4-{[4-(dimethylamino)pyrimidin-2-yl]amino}cyclohexyl)-2-phenoxybenzamide] | 2 (Class 2: The value of percent of control at 10^−7 M was from 40% to 60% or the value of IC′50 was from 50 nM to 200 nM.)
31 | CN(C)c1nc(N[C@H]2CC[C@@H](NC(=O)NCc3ccc(Br)cc3)CC2)nc2c1CCCC2 [compound 1723] | 3 (Class 3 The value of percent of control at 10^−7 M was more than 60% or the value of IC50 was more than 200 nM.)
32 | COc1ccc(Br)c(C(=O)N[C@H]2CC[C@@H](Nc3nccc(N(C)C)n3)CC2)c1 [compound 339] | 3 (Class 3 The value of percent of control at 10^−7 M was more than 60% or the value of IC50 was more than 200 nM.)

Same assay, conditions: class by percent of control at 10^−7 M or IC50

Row | Structure (SMILES) | class
33 | Cc1cc(N(C)C)nc(N[C@H]2CC[C@@H](C(=O)NCc3cccc(F)c3F)CC2)n1 [compound 2820, cis-N-(2,3-difluorobenzyl)-4-{[4-(dimethylamino)-6-methylpyrimidin-2-yl]amino}cyclohexanecarboxamide] | 1 (Class 1: The value of percent of control at 10^−7 M was less than 40% or the value of IC50 was less than 50 nM.)
34 | Cc1nc(N[C@H]2CC[C@@H](NC(=O)c3cc(O)nc(O)c3)CC2)nc(N(C)C)c1C [compound 2825] | 3 (Class 3 The value of percent of control at 10^−7 M was more than 60% or the value of IC50 was more than 200 nM.)
35 | COc1ccc(C(=O)NC[C@H]2CC[C@@H](Nc3ncc(C)c(N(C)C)n3)CC2)cc1 [compound 2693] | 3 (Class 3 The value of percent of control at 10^−7 M was more than 60% or the value of IC50 was more than 200 nM.)
36 | Cc1cnc(NC[C@H]2CC[C@@H](NC(=O)c3ccc(Cl)c(Cl)c3)CC2)nc1N(C)C [compound 2729, 3,4-dichloro-N-[cis-4-({[4-(dimethylamino)-5-methylpyrimidin-2-yl]amino}methyl)cyclohexyl]benzamide] | 3 (Class 3 The value of percent of control at 10^−7 M was more than 60% or the value of IC50 was more than 200 nM.)
37 | COc1cc(OC)cc(C(=O)NC[C@H]2CC[C@@H](Nc3nc(C)cc(N(C)C)n3)CC2)c1 [compound 2711] | 2 (Class 2: The value of percent of control at 10^−7 M was from 40% to 60% or the value of IC′50 was from 50 nM to 200 nM.)
